Data taken from US20250248402A1, “HERBICIDAL COMPOSITIONS AND METHODS FOR CONTROLLING WEEDS” (UPL Mauritius Limited, priority 2024, published 2025).

Tested on: common waterhemp, Sensitive "WUS" Population
Assay: Greenhouse dose-response, effective dose on atrazine-sensitive waterhemp
Format: in vivo, Amaranthus tuberculatus
Details: 13 days after treatment, visual scale 0-100

SMILES: CCNc1nc(Cl)nc(NC(C)C)n1 [Atrazine (480 g/L FL), Atrazine]
- ED 20 Estimate: 11.127 g ai/ha
- ED 80 Estimate: 39.353 g ai/ha
